Results reported in patent publication US9827219B2, “Compositions and methods for lowering levels of high-sensitivity C-reactive protein (HS-CRP) in a subject” (priority 2012, dated 2017).

Test system: cognitive performance in subjects with AAMI
Assay: CDR computerized cognitive test battery, 6-week pilot study in Age-Associated Memory Impairment (Example 1)
Type: in vivo, human
Conditions: for Quality of Episodic Secondary Memory, LS mean difference vs placebo: overall
Method: A single-center, 6-week, double-blind, randomizes, parallel-group, placebo-controlled, dose-ranging pilot study was performed to evaluate the efficacy, tolerability, and safety of >96% ethyl-EPA in subjects with subjective and objective memory impairment according to generally accepted criteria for Age-Associated Memory Impairment (“AAMI”). The primary objective of the study was to determine the effect of >96% ethyl-EPA 1 g, 2 g, and 4 g daily, compared to placebo, on cognitive performance in subjects with AAMI.
The population for this study was men and women between ages 50 and 70 with self-reported complaints of memory loss, subjective and objective cognitive impairment with a score of at least one standard deviation below that of the mean for age-matched elderly population as determined by the total score of between 13 and 20 from the Paired Associated Learning (“PAL”) subset of the Wechsler Memory Scale, evidence of adequate intellectual function as determined by a scaled score of at least 9 (raw score of at least 32) on the Vocabulary subtest of the Wechsler Adult Intelligence Scale and absence of dementia as determined by a score of 24 or higher on the Mini-Mental State Examination (“MMSE”).
Ninety-four subjects were randomized into one of six groups: 1 g E-EPA daily (n=23), 2 g E-EPA daily (n=24), 4 g E-EPA daily (n=24), 1 g placebo daily (n=7), 2 g placebo daily (n=8), and 4 g placebo daily (n=8). E-EPA was provided as 500 mg soft gel capsules containing >96% E-EPA and 0.2% dl-α-tocopherol as an antioxidant. Placebo capsules contained 467 mg of liquid paraffin and 0.2% dl-α-tocopherol. Ninety-one subjects completed the study. Two subjects in the 2 g E-EPA group and one subject in the 2 g placebo group discontinued the study.
The study consisted of a screening visit, a training visit, and four study visits. At the screening visit, subjects' eligibility was determined through cognitive tests (verbal paired associated learning [PAL] subscale, vocabulary subtest, Memory Assessment Clinics Questionnaire [MAC-Q], mini mental state evaluation [MMSE] and MINI [mini international neuropsychiatric interview; sections 1 and 2 of Diagnostic and Statistical Manual of Mental Disorders, 4th Edition (DSM-IV) plus dysthymia]), haematology, clinical chemistry and 12-lead electrocardiogram (ECG). At the training visit, subjects were shown how to use the CDR computerized system. Subjects took study drug for 6 weeks and on Days 0, 14, 28 and 42, subjects underwent the CDR cognitive test battery.
A selection of tasks from the CDR computerized cognitive assessment system were administered at Visit 2 (training visit), Visit 3 (baseline), Visit 4 (Day 14), Visit 5 (Day 28) and Visit 6 (Day 42). Parallel forms of the tests were presented at each testing session. All tasks were computer-controlled, the information presented on high resolution monitors, and the responses recorded via a response model containing two buttons: one marked ‘no’ and the other ‘yes’. Five CDR composite scores were used as the primary/secondary outcome variables. The task titles were: • Word Presentation • Immediate Word Recall • Picture Presentation • Simple Reaction Time • Digit Vigilance • Choice Reaction Time • Spatial Working Memory • Numeric Working Memory • Delayed Word Recall • Word Recognition • Picture Recognition • Bond-Lader Visual Analogue Scales of Mood and Alertness • Screen, Using the Computer Mouse
To ensure consistency of approach, full training on the cognitive tests and CDR test battery was provided to study site staff and study subjects. The results of each variable were automatically recorded using the machine interface developed by CDR.
Summary statistics were provided for the ITT and Study Per Protocol Populations separately for all composite scores, major and supportive variables. Summary statistics were performed for both the unadjusted and difference from baseline data (i.e. the difference from the time matched predose assessments on Day 0). […]

[1] = ITT, ANCOVA, 1, 2, 4 g daily vs placebo
[2] = post-hoc vs corresponding placebo
[3] = post-hoc vs corresponding placebo, 1 g, Days 14 and 28

Structure (SMILES): CC/C=C\C/C=C\C/C=C\C/C=C\C/C=C\CCCC(=O)OCC [AMR101, all-cis eicosa-5,8,11,14,17-pentaenoic acid ethyl ester]
- Self-Rated Contentment, LS mean difference to placebo (ITT): no statistically significant effects
- Immediate Word Recall Accuracy, LS mean difference vs placebo (ITT, 1 g, AM 1, p=0.040): statistically significant decreases
- Immediate Word Recall Accuracy, LS mean difference vs placebo (ITT, 1 g, Day 14, p=0.028): statistically significant decreases
- Picture Recognition Speed, LS mean difference vs placebo (ITT, 1 g, Day 14 at AM 2, p=0.084): trends for benefits versus placebo
- Immediate Word Recall Accuracy, LS mean difference vs placebo (ITT, 1 g, Day 14 at PM 2, p=0.020): statistically significant decreases
- Word Recognition Sensitivity Index, LS mean difference vs placebo (ITT, 1 g, Day 28, p=0.024): statistically significant decreases
- Picture Recognition Speed, LS mean difference vs placebo (ITT, 1 g, Day 28 at AM 1, p=0.085): trends for benefits versus placebo
- Picture Recognition Sensitivity Index, LS mean difference vs placebo (ITT, 1 g, Day 28 at AM 2, p=0.017): statistically significant decrease
- Picture Recognition Sensitivity Index, LS mean difference vs placebo (ITT, 1 g, Day 28 at PM 2, p=0.040): statistically significant decrease
- Quality of Episodic Secondary Memory, LS mean difference vs placebo (ITT, 1 g, p=0.040): statistically significant decreases versus placebo
- Immediate Word Recall Accuracy, LS mean difference vs placebo (ITT, 2 g, AM 1, p=0.028): statistically significant decreases
- Immediate Word Recall Accuracy, LS mean difference vs placebo (ITT, 2 g, Day 28, p=0.017): statistically significant decreases
- Self-Rated Alertness, LS mean difference vs placebo (ITT, 2 g, Day 28, p=0.047): statistically significant decrease in ratings
- Immediate Word Recall Accuracy, LS mean difference vs placebo (ITT, 2 g, Day 28 at AM 1, p=0.006): statistically significant decreases
- Self-Rated Alertness, LS mean difference vs placebo (ITT, 2 g, Day 28 at AM 2, p=0.041): statistically significant decrease in ratings
- Quality of Episodic Secondary Memory, LS mean difference vs placebo (ITT, 2 g, p=0.035): statistically significant decreases versus placebo
- Spatial Working Memory Speed, LS mean difference vs placebo (ITT, 4 g, Day 14 at PM 1, p=0.048): statistically significant benefit versus placebo
- Word Recognition Sensitivity Index, LS mean difference vs placebo (ITT, 4 g, Day 28 at PM 2, p=0.030): statistically significant decrease
- Word Recognition Sensitivity Index, LS mean difference vs placebo (ITT, 4 g, Day 42, p=0.038): statistically significant decreases
- Spatial Working Memory Speed, LS mean difference vs placebo (ITT, 4 g, Day 42 at AM 1, p=0.061): trend for a benefit
- Word Recognition Sensitivity Index, LS mean difference vs placebo (ITT, 4 g, PM 2, p=0.045): statistically significant decrease
- Continuity of Attention (ITT, ANCOVA): no statistically significant effect of treatment
- Delayed Word Recall Accuracy (ITT, ANCOVA): no statistically significant effects of treatment
- Digit Vigilance Targets Detected (ITT, ANCOVA): no statistically significant effect of treatment
- Immediate Word Recall Accuracy (ITT, ANCOVA): no statistically significant effects of treatment
- Numeric Working Memory Speed (ITT, ANCOVA): no statistically significant effects of treatment
- Picture Recognition Sensitivity Index (ITT, ANCOVA): no statistically significant effects of treatment
- Picture Recognition Speed (ITT, ANCOVA): no statistically significant effects of treatment
- Quality of Episodic Secondary Memory (ITT, ANCOVA): no statistically significant effect of treatment
- Self-Rated Alertness (ITT, ANCOVA): no statistically significant effect of treatment
- Self-Rated Calmness (ITT, ANCOVA): no statistically significant effect of treatment
- Spatial Working Memory Speed (ITT, ANCOVA): no statistically significant effects of treatment
- Speed of Memory (ITT, ANCOVA): no statistically significant effects of treatment
- Word Recognition Sensitivity Index (ITT, ANCOVA): no statistically significant effects of treatment
- Word Recognition Speed (ITT, ANCOVA): no statistically significant effects of treatment
- Digit Vigilance Speed [1]: no statistically significant effects of treatment
- Power of Attention [1]: no statistically significant effect of treatment
- Simple Reaction Time [1]: no statistically significant effects of treatment
- Self-Rated Contentment (ITT, ANCOVA, p<0.001): statistically significant treatment by day interaction
- Choice Reaction Time (ITT, ANCOVA, p=0.011): statistically significant treatment by day interaction
- Spatial Working Memory Sensitivity Index (ITT, ANCOVA, p=0.015): statistically significant treatment by day interaction
- Quality of Working Memory (ITT, ANCOVA, p=0.019): statistically significant treatment by day interaction
- Numeric Working Memory Sensitivity Index (ITT, ANCOVA, p=0.089): statistical trend for a treatment by day interaction
- Power of Attention, LS mean difference active vs placebo (ITT, any time-point): no LS mean difference between active treatment and placebo
- Continuity of Attention (Study Per Protocol, ANCOVA): no statistically significant effect of treatment
- Digit Vigilance Targets Detected (Study Per Protocol, ANCOVA, p=0.040): statistically significant treatment by time-point interaction
- Self-Rated Contentment, LS mean difference to placebo (Study Per-Protocol): no statistically significant effects
- Immediate Word Recall Accuracy, LS mean difference to placebo (Study Per-Protocol, 1 g, AM 1, p=0.038): statistically significant decreases
- Immediate Word Recall Accuracy, LS mean difference to placebo (Study Per-Protocol, 1 g, AM 2, p=0.048): statistically significant decreases
- Immediate Word Recall Accuracy, LS mean difference to placebo (Study Per-Protocol, 1 g, Day 14, p=0.024): statistically significant decreases
- Immediate Word Recall Accuracy, LS mean difference to placebo (Study Per-Protocol, 1 g, Day 14 at PM 2, p=0.019): statistically significant decreases
- Word Recognition Sensitivity Index, LS mean difference to placebo (Study Per-Protocol, 1 g, Day 28, p=0.027): statistically significant decreases
- Picture Recognition Sensitivity Index, LS mean difference vs placebo (Study Per-Protocol, 1 g, Day 28 at AM 2, p=0.020): statistically significant decreases versus placebo
- Picture Recognition Sensitivity Index, LS mean difference vs placebo (Study Per-Protocol, 1 g, Day 28 at PM 2, p=0.026): statistically significant decreases versus placebo
- Quality of Episodic Secondary Memory, LS mean difference vs placebo (Study Per-Protocol, 1 g, p=0.043): statistically significant decreases versus placebo
- Immediate Word Recall Accuracy, LS mean difference to placebo (Study Per-Protocol, 2 g, AM 1, p=0.029): statistically significant decreases
- Immediate Word Recall Accuracy, LS mean difference to placebo (Study Per-Protocol, 2 g, Day 28, p=0.017): statistically significant decreases
- Self-Rated Alertness, LS mean difference vs placebo (Study Per-Protocol, 2 g, Day 28, p=0.035): statistically significant decrease in ratings
- Immediate Word Recall Accuracy, LS mean difference to placebo (Study Per-Protocol, 2 g, Day 28 at AM 1, p=0.006): statistically significant decreases
- Self-Rated Alertness, LS mean difference vs placebo (Study Per-Protocol, 2 g, Day 28 at AM 2, p=0.033): statistically significant decrease in ratings
- Quality of Episodic Secondary Memory, LS mean difference vs placebo (Study Per-Protocol, 2 g, p=0.036): statistically significant decreases versus placebo
- Word Recognition Sensitivity Index, LS mean difference to placebo (Study Per-Protocol, 4 g, Day 42, p=0.038): statistically significant decreases
- Self-Rated Calmness, LS mean difference vs placebo (Study Per-Protocol, 4 g, Day 42 at PM 1, p=0.071): statistical trend for an increase in ratings versus placebo
- Delayed Word Recall Accuracy (Study Per-Protocol, ANCOVA): no statistically significant effects of treatment
- Digit Vigilance Speed (Study Per-Protocol, ANCOVA): no statistically significant effects of treatment
- Immediate Word Recall Accuracy (Study Per-Protocol, ANCOVA): no statistically significant effects of treatment
- Numeric Working Memory Speed (Study Per-Protocol, ANCOVA): no statistical significant effects of treatment
- Picture Recognition Sensitivity Index (Study Per-Protocol, ANCOVA): no statistically significant effects of treatment
- Picture Recognition Speed (Study Per-Protocol, ANCOVA): no statistical significant effects of treatment
- Power of Attention (Study Per-Protocol, ANCOVA): no statistically significant effect of treatment
- Quality of Episodic Secondary Memory (Study Per-Protocol, ANCOVA): no statistically significant effects of treatment
- Self-Rated Alertness (Study Per-Protocol, ANCOVA): no statistically significant effect of treatment
- Self-Rated Calmness (Study Per-Protocol, ANCOVA): no statistically significant effect of treatment
- Simple Reaction Time (Study Per-Protocol, ANCOVA): no statistically significant effects of treatment
- Spatial Working Memory Speed (Study Per-Protocol, ANCOVA): no statistical significant effects of treatment
- Speed of Memory (Study Per-Protocol, ANCOVA): no statistical significant effects of treatment
- Word Recognition Sensitivity Index (Study Per-Protocol, ANCOVA): no statistically significant effects of treatment
- Word Recognition Speed (Study Per-Protocol, ANCOVA): no statistical significant effects of treatment
- Self-Rated Contentment (Study Per-Protocol, ANCOVA, p<0.001): statistically significant treatment by day interaction
- Choice Reaction Time (Study Per-Protocol, ANCOVA, p=0.013): statistically significant treatment by day interaction
- Spatial Working Memory Sensitivity Index (Study Per-Protocol, ANCOVA, p=0.014): statistically significant treatment by day interaction
- Quality of Working Memory (Study Per-Protocol, ANCOVA, p=0.021): statistically significant treatment by day interaction
- Power of Attention, difference active vs placebo (Study Per-Protocol, any time-point): no difference between active treatment and placebo
- Continuity of Attention [2]: no general pattern of effects
- Numeric Working Memory Sensitivity Index [2]: only isolated improvements and declines in performance
- Quality of Working Memory [2]: only isolated improvements and declines in performance
- Self-Rated Calmness [2]: no differences between active treatment and placebo
- Power of Attention (post-hoc vs corresponding placebo group, 4 g, Day 42): overall benefit versus the corresponding placebo
- Self-Rated Alertness [3]: decreases in ratings
- Self-Rated Contentment [3]: decreases in ratings
- Choice Reaction Time (post-hoc vs corresponding placebo, 4 g, Day 42): superior to placebo at every time point
- Spatial Working Memory Sensitivity Index (post-hoc vs corresponding placebo, 4 g, Day 42, Study PP Population): overall benefit for ethyl-EPA 4 g over placebo
- Simple Reaction Time (post-hoc vs corresponding placebo, 4 g, PM 2 collapsed across days, several time-points on Days 14 and 42): improvements in performance
- Choice Reaction Time (post-hoc vs corresponding placebo, 4 g, all study days): overall benefit versus corresponding placebo
- Quality of Episodic Secondary Memory and contributing subtasks (post-hoc vs corresponding placebo, explained by pre-existing differences between groups): a number of decreases for ethyl-EPA
- Subtask measures of Speed of Memory (post-hoc vs corresponding placebo, mostly 1 g): some signs of improvement in performance
